From the supplement of paper PMC11061612

Tests used:
Test in all cases: combination Emax (second highest fraction inhibited in the dose matrix, 72 h); higher = more inhibition; extreme values may be limits of the assay
[1] = system: OVCAR-5 (Ovarian Carcinoma)
In short: (§1)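 Cell lines grown in DMEM/F12 or RPMI with 10% FBS were plated in 1536-well plates and held 24 hours at 37°C, 5% CO2 before 72 hours of exposure to two-drug dose matrices, with DMSO typically at 0.2%. CellTiter-Glo 2.0 luminescence gave viability, which was converted to inhibition. Vehicle wells were set to 0 and blank wells to 1. Combination Emax is the second-highest inhibition in the matrix, and Bliss excess is the observed combination effect minus the expected EA + EB − EA·EB, where EA and EB are the single-agent effects.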

LOXIMVI (Melanoma) = system: LOXIMVI (Melanoma)
In short: as §1

GAMG (Glioblastoma) = system: GAMG (Glioblastoma)
In short: as §1

NCI-H2722 (Mesothelioma) = system: NCI-H2722 (Mesothelioma)
In short: as §1

[2] = system: OV-56 (Ovarian Carcinoma)
In short: as §1

[3] = system: LS-123 (Colorectal Carcinoma)
In short: as §1

A673 (Ewing's Sarcoma) = system: A673 (Ewing's Sarcoma)
In short: as §1

[4] = system: OE21 (Esophageal Squamous Cell Carcinoma)
In short: as §1

[5] = system: NCI-H524 (Small Cell Lung Carcinoma)
In short: as §1

[6] = system: NCI-H1568 (Lung Adenocarcinoma)
In short: as §1

Row | SMILES | combination Emax [1] | combination Emax (LOXIMVI (Melanoma)) | combination Emax (GAMG (Glioblastoma)) | combination Emax (NCI-H2722 (Mesothelioma)) | combination Emax [2] | combination Emax [3] | combination Emax (A673 (Ewing's Sarcoma)) | combination Emax [4] | combination Emax [5] | combination Emax [6]
1 | CC1(C)CCC(CN2CCN(c3ccc(C(=O)NS(=O)(=O)c4ccc(NCC5CCOCC5)c([N+](=O)[O-])c4)c(Oc4cnc5[nH]ccc5c4)c3)CC2)=C(c2ccc(Cl)cc2)C1 [Venetoclax] + C[C@@H](Nc1cc(F)cc(F)c1)c1cc(C(=O)N(C)C)cc2c(=O)cc(N3CCOCC3)oc12 [AZD8186] (first compound max 1 µM, 7x7, partner max 3 µM) | 0.214 | 0.129 | 0.453 | 0.17 | 0.0859 | 0.256 | 0.558 | 0.109 | 0.535 | 0.0798
2 | NC1(C(=O)N[C@@H](CCO)c2ccc(Cl)cc2)CCN(c2ncnc3[nH]ccc23)CC1 [Capivasertib] + C[C@@H]1COCCN1C2=NC(=NC(=C2)C3(CC3)[S@](=N)(=O)C)C4=C5C=CNC5=NC=C4 [AZD6738] (first compound max 10 µM, 7x7, partner max 10 µM) | 0.742 | 0.779 | 0.705 | 0.533 | 0.542 | 0.457 | 0.804 | 0.858 | 0.712 | 0.664
3 | CC1(C)CCC(CN2CCN(c3ccc(C(=O)NS(=O)(=O)c4ccc(NCC5CCOCC5)c([N+](=O)[O-])c4)c(Oc4cnc5[nH]ccc5c4)c3)CC2)=C(c2ccc(Cl)cc2)C1 [Venetoclax] + C[C@@H]1COCCN1C2=NC(=NC(=C2)C3(CC3)[S@](=N)(=O)C)C4=C5C=CNC5=NC=C4 [AZD6738] (first compound max 1 µM, 7x7, partner max 10 µM) | 0.768 | 0.723 | 0.708 | 0.384 | 0.566 | 0.587 | 0.89 | 0.828 | 0.748 | 0.553
4 | Cn1cnc2c(F)c(Nc3ccc(Br)cc3Cl)c(C(=O)NOCCO)cc21 [Selumetinib] + C=CCn1c(=O)c2cnc(Nc3ccc(N4CCN(C)CC4)cc3)nc2n1-c1cccc(C(C)(C)O)n1 [AZD1775] (first compound max 10 µM, partner max 1 µM) | 0.58 | 0.854 | 0.527 | 0.304 | 0.0799 | 0.542 | 0.203 | 0.683 | 0.617 | 0.489
5 | CC1(C)CCC(CN2CCN(c3ccc(C(=O)NS(=O)(=O)c4ccc(NCC5CCOCC5)c([N+](=O)[O-])c4)c(Oc4cnc5[nH]ccc5c4)c3)CC2)=C(c2ccc(Cl)cc2)C1 [Venetoclax] + CN(C)CCCOc1ccc(-c2ccc3ncc4c(c3c2)n(C2CCOCC2)c(=O)n4C)cn1 [AZD0156] (first compound max 1 µM, 7x7, partner max 1 µM) | 0.405 | 0.588 | 0.273 | 0.175 | 0.183 | 0.205 | 0.835 | 0.162 | 0.321 | 0.319
6 | NC1(C(=O)N[C@@H](CCO)c2ccc(Cl)cc2)CCN(c2ncnc3[nH]ccc23)CC1 [Capivasertib] + COc1nnc2ccc(N3CCC(c4ccc(OCCN5CCN(C)C(=O)[C@H]5C)cc4)CC3)nn12 [AZD5153] (first compound max 10 µM, 7x7, partner max 1 µM) | 0.624 | 0.952 | 0.724 | 0.473 | 0.41 | 0.418 | 0.434 | 0.882 | 0.667 | 0.305
7 | CN(CCO)CC[C@H](CSc1ccccc1)Nc1ccc(S(=O)(=O)NC(=O)c2ccc(N3CCC([C@@H](O)c4ccccc4-c4ccc(Cl)cc4)CC3)cc2)cc1S(=O)(=O)C(F)(F)F [AZD4320] + Cn1cnc2c(F)c(Nc3ccc(Br)cc3Cl)c(C(=O)NOCCO)cc21 [Selumetinib] (first compound max 1 µM, 7x7, partner max 3 µM) | 0.613 | 0.689 | 0.296 | 0.508 | 0.304 | – | 0.971 | 0.413 | 0.84 | 0.444
8 | CC1(C)CCC(CN2CCN(c3ccc(C(=O)NS(=O)(=O)c4ccc(NCC5CCOCC5)c([N+](=O)[O-])c4)c(Oc4cnc5[nH]ccc5c4)c3)CC2)=C(c2ccc(Cl)cc2)C1 [Venetoclax] + Cn1cnc2c(F)c(Nc3ccc(Br)cc3Cl)c(C(=O)NOCCO)cc21 [Selumetinib] (first compound max 1 µM, 7x7, partner max 3 µM) | 0.572 | 0.571 | 0.157 | 0.14 | 0.108 | 0.374 | 0.65 | 0.337 | 0.113 | 0.0499
9 | Cc1c2c(nn1C)CSCc1cc(n(C)n1)CSc1cc(c3ccccc3c1)OCCCc1c(C(=O)O)n(C)c3c-2c(Cl)ccc13 [AZD5991] + CCN(CCO)CCCOc1ccc2c(Nc3cc(CC(=O)Nc4cccc(F)c4)[nH]n3)ncnc2c1 [AZD2811] (first compound max 1 µM, 7x7, partner max 1 µM) | 0.205 | 0.339 | 0.534 | 0.29 | 0.2 | 0.229 | 0.946 | 0.522 | 1 | 0.306
